The results in this text go back to US12084422B2, “Phenyl-n-quinoline derivatives for treating a RNA virus infection” (ABIVAX, priority 2018, dated 2024).

The subject of one assay is DENV-2 strain 16681. Description: Screening for DENV-2 inhibition using Viral ToxGlo assay in A549 cells. It is filed as cell-based, Dengue 2 virus. The following applies: Dengue virus, DENV2, A549, 120 h, read-out: % DENV-2 Inhibition Mean (n = 3). As to the method: Protocol for Screening Antiviral Compounds for DENV-2 Inhibition and Cytotoxicity Using Viral ToxGlo Assay
A549 cells were maintained in Dulbecco's Modified Eagle Medium (DMEM) supplemented with 10% fetal bovine serum, 100 U/ml penicillin and 100 μg/ml streptomycin. For the purposes of the screening assay they were grown to 90% confluency, trypsinized and recovered. The trypsin was neutralised with cell culture media and cells were centrifuged at 150×g for 5 minutes before discarding the supernatant and resuspending cell pellet in assay media (DMEM supplemented with 2% fetal bovine serum and 100 U/ml penicillin and 100 μg/ml streptomycin). The cells were seeded into 96-well white clear-bottomed cell culture plates at a density of 1.0×10^4 cells/well in 50 μl. For the media/background control column assay media only was added. Cell plates were placed in a humid chamber and incubated overnight at 37° C./5% CO2. After overnight incubation cells were checked for confluency and healthy appearance.
Test compounds were prepared at a final concentration of 10 μM, in a maximum DMSO concentration of 1% (final assay concentration maximal 0.1% DMSO) and added to the cell plates in volumes of 10 μl. For cell control and virus control wells the test article solvent only was added. As a positive inhibition control, 7-Deaza-2′-C-methyladenosine was added at 100 μM in 3 wells. Virus (DENV-2 strain 16681) or assay media for cytotoxicity test wells and media/cell control wells was added immediately after test articles at an MOI of 0.5, 40 for 96 well plates respectively. Virus suspension was prepared by thawing DENV-2 frozen stocks and diluting to the required concentration of plaque forming units in assay media.
Cell plates were further incubated inside a humid chamber for 5 days p.i at 37° C./5% CO2. After the incubation period cells were observed under the microscope to check for characteristic cytopathic effect in virus control wells and healthy cells in the cell control wells. After plates were adjusted to room temperature 20 μl Viral ToxGlo (Promega) was added to each well of the 96-well cell plates. Plates were incubated at room temperature for 5 minutes before measuring the luminescence on a spectrophotometer (Envision, PerkinElmer).
DENV-2 inhibition was calculated as percentage of cytopathic effect inhibition relative to the virus control and cytotoxicity as percentage of cell survival relative to cell control wells.

The subject of the next assay is RSV A2. In words: Screening for RSV inhibition using Viral ToxGlo assay in HEp-2 cells. It is filed as cell-based. The following applies: human respiratory syncytial virus, HEp-2, 72 h. How it is done:
Protocol for Screening Antiviral Compounds for RSV Inhibition and Cytotoxicity Using Viral ToxGlo Assay
HEp-2 cells were maintained in Eagle's minimum essential medium (EMEM) with Earle's BSS adjusted to contain 2 mM L-glutamine, 10% fetal bovine serum, 100 U/ml penicillin and 100 μg/ml streptomycin. For the purposes of the screening assay they were grown to 90% confluency, trypsinized and recovered. The trypsin was neutralised with cell culture media and cells were centrifuged at 150×g for 5 minutes before discarding the supernatant and resuspending cell pellet in assay media (EMEM with Earle's BSS adjusted to contain 2 mM L-glutamine, 2% fetal bovine serum and 100 U/ml penicillin and 100 μg/ml streptomycin). The cells were seeded into white clear-bottomed cell culture plates at a density of 1.5×10^4 cells/well in 50 μl and 4×10^3 cells/well in 25 μl for 96 well plates and 384 well plates respectively. For the media/background control column assay media only was added. Cell plates were placed in a humid chamber and incubated overnight at 37° C./5% CO2. After overnight incubation cells were checked for confluency and healthy appearance.
Test articles were made up at 10× test concentration in a maximum DMSO concentration of 10% (final assay concentration maximal 1% DMSO) and added to the cell plates in volumes of 10 μl for 96 well plates and 5 μl for 384 well plates. For cell control and virus control wells the test article solvent only was added. Virus or assay media for cytotoxicity test wells and media/cell control wells was added immediately after test articles at an MOI of 0.5, 40 or 20 μl for 96 and 384 well plates respectively. Virus suspension was prepared by thawing RSV A2 frozen stocks and diluting to the required concentration of plaque forming units in assay media on ice.
Cell plates were further incubated inside a humid chamber for 72 h p.i at 37° C./5% CO2. After the incubation period cells were observed under the microscope to check for characteristic cytopathic effect in virus control wells and healthy cells in the cell control wells. After plates were adjusted to room temperature 20/40 μl Viral ToxGlo (Promega) was added to each well of the 384/96 well cell plates. Plates were incubated at room temperature, protected from light on a plate rocker for 20 minutes before measuring the luminescence on a spectrophotometer (Biotek Synergy HTX).
RSV inhibition was calculated as percentage of cytopathic effect inhibition relative to the virus control and cytotoxicity as percentage of cell survival relative to cell control wells. This allowed EC50 values to be calculated for each test article where a virus inhibition or cytotoxic dose response was identified. EC50 values ranging between 0.001 µM and 5 μM could thus be determined for compounds 1, 6, 10, 13, 28, 38, 43, 47, 48, 49, 50, 51, 52, 53, 54, 55, 56 and 57.

On to `Cc1cc(OCc2ccccc2)ccc1Nc1ccc2cccc(Cl)c2n1` [Compound 47, N-(4-(benzyloxy)-2-methylphenyl)-8-chloroquinolin-2-amine], for which, in the assay with DENV-2 strain 16681, the inhibition (as a rule, the share of the control response that was lost under treatment) at 10 µM is 82%. For the same compound, the EC50 (in general, the concentration needed to bring the measured effect to its halfway point) with RSV A2 is 420 nM.

For the compound `Cc1cc(Oc2cccc3ccccc23)ccc1Nc1ccc2cccc(Cl)c2n1` [Compound 54, 8-chloro-N-(2-methyl-4-(naphthalen-1-yloxy)phenyl)quinolin-2-amine], the inhibition at 10 µM in the assay with DENV-2 strain 16681 came to 69%. Besides, in the assay on RSV A2, the EC50 was 94 nM.

`Cc1cc(Oc2ccccc2)ccc1Nc1ccc2cccc(Cl)c2n1` [Compound 56, 8-chloro-N-(2-methyl-4-phenoxyphenyl)quinolin-2-amine 2,2,2-trifluoroacetate]: the inhibition at 10 µM in the assay on DENV-2 strain 16681 came to 76%. Moreover, the EC50 in the assay with RSV A2 was 132 nM.
